From ChEMBL document CHEMBL6120986, “In silico inspired design of urea noscapine congeners as anticancer agents: Chemical synthesis and experimental evaluation using breast cancer cells and a xenograft mouse model” (Eur J Med Chem, 2025)
pIC50, pKd: −log10 of the molar value. Active and inactive are the calls of the source. The calls are words filed in the database; no cut-off is given here.

Experiments:
[1] = Cytotoxicty against HEK cells incubated for 72 hrs by SRB assay; type: toxicity, cell-based; details: human
[2] = test system: MDA-MB-231; experiment: Antiproliferative activity against human MDA-MB-231 cells assessed as inhibition of cell proliferation incubated for 72 hrs by SRB assay; type: functional, cell-based; details: MDA-MB-231, 72 h
[3] = test system: MCF7; experiment: Antiproliferative activity against human MCF7 cells assessed as inhibition of cell proliferation incubated for 72 hrs by SRB assay; type: functional, cell-based; details: MCF7, 72 h
[4] = Toxicity in female BALB/c athymic mouse assessed as hemoglobin concentration at 150 mg/kg/day, po (reference value: 16.59 +/- 0.60 g/dl); type: organism-based; details: in vivo
[5] = Toxicity in female BALB/c athymic mouse assessed as mean corpuscular volume at 150 mg/kg/day, po (reference value: 53.06 +/- 0.06 fL); type: organism-based; details: in vivo
[6] = test system: Mitochondrial membrane; experiment: Induction of mitochondrial membrane potential loss in human MDA-MB-231 cells assessed as increase in green fluorescence incubated for 48 hrs by rhodamine-123 staining based fluorescence microscopic analysis; type: cell membranes
[7] = Toxicity in female BALB/c athymic mouse assessed as bilirubin indirect level at 150 mg/kg/day, po (reference value: 3.05 +/- 0.32 mg/dl); type: organism-based; details: in vivo
[8] = Toxicity in female BALB/c athymic mouse assessed as WBC count at 150 mg/kg/day, po (reference value: 4.50 +/- 2.20 10^3/uL); type: organism-based; details: in vivo
[9] = Toxicity in BALB/c athymic mouse assessed as effect on interstitium morphology at 150 mg/kg, po by Hematoxylin and eosin staining based analysis; type: organism-based; details: in vivo
[10] = Toxicity in female BALB/c athymic mouse assessed as platelet at 150 mg/kg/day, po (reference value: 95.11 +/- 7.23 10^3/uL); type: organism-based; details: in vivo
[11] = Toxicity in female BALB/c athymic mouse assessed as Chlorine level at 150 mg/kg/day, po (reference value: 105.63 +/- 4.46 mEq/L); type: organism-based; details: in vivo
[12] = test system: Mitochondrial membrane; experiment: Induction of mitochondrial membrane potential loss in human MDA-MB-231 cells assessed as increase in blue fluorescence incubated for 48 hrs by […] staining based fluorescence microscopic analysis; type: cell membranes
[13] = Toxicity in female BALB/c athymic mouse assessed as albumin level at 150 mg/kg/day, po (reference value: 6.31 +/- 0.41 g/dl); type: organism-based; details: in vivo
[14] = Toxicity in female BALB/c athymic mouse assessed as ALT level at 150 mg/kg/day, po (reference value: 29.79 +/- 3.15 U/L); type: organism-based; details: in vivo
[15] = Toxicity in BALB/c athymic mouse xenografted with human MCF-7 cells assessed as change in body weight at 150 mg/kg, po administrated daily for 30 days; type: organism-based; details: in vivo, 720 h, time 30 day
[16] = Toxicity in female BALB/c athymic mouse assessed as AST level at 150 mg/kg/day, po (reference value: 105.92 +/- 6.41 U/L); type: organism-based; details: in vivo
[17] = Toxicity in female BALB/c athymic mouse assessed as bilirubin total level at 150 mg/kg/day, po (reference value: 0.673 +/- 0.01 mg/dl); type: organism-based; details: in vivo
[18] = test system: MDA-MB-231; experiment: Induction of cell cycle arrest in human MDA-MB-231 cells assessed as increase in accumulation of cells at G2/M phase at 6.65 uM incubated for 72 hrs by PI staining based FACS analysis relative to control; type: functional
[19] = Toxicity in female BALB/c athymic mouse assessed as BUN level at 150 mg/kg/day, po (reference value: 10.19 +/- 2.68 mg/dl); type: organism-based; details: in vivo
[20] = test system: MDA-MB-231; experiment: Inhibition of colony formation in human MDA-MB-231 cells incubated for 24 hrs by crystal violet staining based colony formation assay; type: functional, cell-based; details: dose 1-20 µM
[21] = Toxicity in BALB/c athymic mouse assessed as effect on proximal tubules morphology at 150 mg/kg, po by Hematoxylin and eosin staining based analysis; type: organism-based; details: in vivo
[22] = Toxicity in female BALB/c athymic mouse assessed as bilirubin direct level at 150 mg/kg/day, po (reference value: 0.298 +/- 0.07 mg/dl); type: organism-based; details: in vivo
[23] = Toxicity in female BALB/c athymic mouse assessed as monocyte count at 150 mg/kg/day, po (reference value: 0.39 +/- 0.03 %); type: organism-based; details: in vivo
[24] = Toxicity in BALB/c athymic mouse assessed as effect on glomeruli morphology at 150 mg/kg, po by Hematoxylin and eosin staining based analysis; type: organism-based; details: in vivo
[25] = Toxicity in female BALB/c athymic mouse assessed as mean corpuscular hemoglobin concentration at 150 mg/kg/day, po (reference value: 35.86 +/- 0.24 g/dl); type: organism-based; details: in vivo
[26] = test system: MDA-MB-231; experiment: Induction of apoptosis in human MDA-MB-231 cells assessed as increase in TUNEL positive nuclei at 6.56 uM by TUNEL assay relative to control; type: functional, cell-based
[27] = test system: MDA-MB-231; experiment: Induction of apoptosis in human MDA-MB-231 cells assessed as late apoptotic cells at 6.56 uM incubated for 72 hrs by Annexin/FITC based FACS analysis (reference value: 3%); type: functional
[28] = Toxicity in female BALB/c athymic mouse assessed as mean corpuscular hemoglobin measured per cell at 150 mg/kg/day, po (reference value: 28.62 +/- 0.08 pg/cell); type: organism-based; details: in vivo
[29] = Toxicity in female BALB/c athymic mouse assessed as ALK PHOS level at 150 mg/kg/day, po (reference value: 78.59 +/- 5.85 U/L); type: organism-based; details: in vivo
[30] = test system: MDA-MB-231; experiment: Induction of apoptosis in human MDA-MB-231 cells assessed as increase in fragmented nuclei at 6.65 uM (IC50) measured after 72 hrs by fluorescence microscopic analysis; type: functional, cell-based
[31] = Toxicity in female BALB/c athymic mouse assessed as glucose level at 150 mg/kg/day, po (reference value: 98.47 +/- 3.29 mg/dl); type: organism-based; details: in vivo
[32] = test system: Mitochondrial membrane; experiment: Induction of mitochondrial membrane potential loss in human MDA-MB-231 cells assessed as decrease in red fluorescence incubated for 48 hrs by JC-1 staining based fluorescence microscopic analysis; type: cell membranes
[33] = test system: MCF7; experiment: Antitumor activity against human MCF7 cells xenografted in BALB/c athymic mouse assessed as reduction in tumor volume at 150 mg/kg, po administrated for 30 days (reference value: 1.63 cm^3); type: functional; details: time 30 day
[34] = Toxicity in BALB/c athymic mouse assessed as effect on distal tubules morphology at 150 mg/kg, po by Hematoxylin and eosin staining based analysis; type: organism-based; details: in vivo
[35] = Toxicity in female BALB/c athymic mouse assessed as hematocrit at 150 mg/kg/day, po (reference value: 41.34 +/- 0.30 %); type: organism-based; details: in vivo
[36] = test system: MDA-MB-231; experiment: Induction of intracellular ROS generation in human MDA-MB-231 cells assessed as increase in fluorescence intensity at 6.56 uM incubated for 48 hrs by H2DCFDA fluorescence assay; type: functional, cell-based
[37] = Toxicity in female BALB/c athymic mouse assessed as effect on bronchial morphology at 150 mg/kg, po by Hematoxylin and eosin staining based analysis; type: organism-based; details: in vivo
[38] = Toxicity in female BALB/c athymic mouse assessed as RBC count at 150 mg/kg/day, po (reference value: 5.84 +/- 0.30 10^6/uL); type: organism-based; details: in vivo
[39] = Binding affinity in goat brain tubulin assessed as equilibrium dissociation constant incubated for 45 mins by fluorescence titration method; set-up: species or system Capra hircus
[40] = Toxicity in female BALB/c athymic mouse assessed as creatinine level at 150 mg/kg/day, po (reference value: 0.690 +/- 0.05 mg/dl); type: organism-based; details: in vivo
[41] = Toxicity in female BALB/c athymic mouse assessed as calcium level at 150 mg/kg/day, po (reference value: 8.73 +/- 0.10 mg/dl); type: organism-based; details: in vivo
[42] = test system: MDA-MB-231; experiment: Induction of apoptosis in human MDA-MB-231 cells assessed as formation of apoptotic bodies at 6.65 uM (IC50) measured after 72 hrs by fluorescence microscopic analysis; type: functional, cell-based
[43] = Toxicity in BALB/c athymic mouse assessed as effect on alveoli morphology at 150 mg/kg mg/kg, po by Hematoxylin and eosin staining based analysis; type: organism-based; details: in vivo
[44] = test system: MDA-MB-231; experiment: Induction of apoptosis in human MDA-MB-231 cells assessed as membrane blebbing at 6.65 uM (IC50) measured after 72 hrs by fluorescence microscopic analysis; type: functional, cell-based
[45] = test system: MDA-MB-231; experiment: Induction of apoptosis in human MDA-MB-231 cells assessed as early apoptotic cells at 6.56 uM incubated for 72 hrs by Annexin/FITC based FACS analysis (reference value: 2%); type: functional
[46] = Toxicity in female BALB/c athymic mouse assessed as sodium level at 150 mg/kg/day, po (reference value: 144.51 +/- 0.85 mEq/L); type: organism-based; details: in vivo
[47] = Toxicity in female BALB/c athymic mouse assessed as eosinophil count at 150 mg/kg/day, po (reference value: 0.84 +/- 0.04 %); type: organism-based; details: in vivo
[48] = Toxicity in female BALB/c athymic mouse assessed as potassium level at 150 mg/kg/day, po (reference value: 3.30 +/- 0.83 mEq/L); type: organism-based; details: in vivo
[49] = Toxicity in BALB/c athymic mouse assessed as effect on hepatic lobules morphology at 150 mg/kg, po by Hematoxylin and eosin staining based analysis; type: organism-based; details: in vivo
[50] = Toxicity in BALB/c athymic mouse assessed as effect on cerebral cortex morphology at 150 mg/kg mg/kg, po by Hematoxylin and eosin staining based analysis; type: organism-based; details: in vivo
[51] = Toxicity in female BALB/c athymic mouse assessed as total protein level at 150 mg/kg/day, po (reference value: 6.88 +/- 0.15 g/dl); type: organism-based; details: in vivo
[52] = test system: MDA-MB-231; experiment: Induction of cell cycle arrest in human MDA-MB-231 cells assessed as accumulation of hypodiploid cells at sub-G1 phase at 6.65 uM IC50 incubated for 72 hrs by FACS analysis; type: functional, cell-based
[53] = organism: Capra hircus; experiment: Binding affinity to goat brain tubulin assessed as tryptophan fluorescence change incubated for 45 mins by tryptophan quenching assay; details: dose 50-200 µM
[54] = Toxicity in BALB/c athymic mouse assessed as effect on blood arteries morphology at 150 mg/kg, po by Hematoxylin and eosin staining based analysis; type: organism-based; details: in vivo

## COc1ccc(NC(=O)Nc2c3c(c(OC)c4c2OCO4)[C@H]([C@H]2OC(=O)c4c2ccc(OC)c4OC)N(C)CC3)c(OC)c1
[1]
  IC50 at 72 h: 306 µM
[2]
  pIC50: 4.69
[3]
  pIC50: 4.76

## COc1ccc2c(c1OC)C(=O)O[C@@H]2[C@H]1c2c(c(NC(=O)Nc3ccc(Cl)cc3Cl)c3c(c2OC)OCO3)CCN1C
[4]
  Activity: 14.6 g/dL
[5]
  Activity: 58.1 fL
[6]
  Activity: Active
[7]
  Activity: 3.08 mg/dL
[8]
  Activity: 4.59 10^3 /uL
[9]
  Activity: Non-toxic
[10]
  Activity: 89.07 10^3 /uL
[1]
  IC50 at 72 h: 338 µM
[11]
  Activity: 106.71 mEq/L
[12]
  Activity: Active
[2]
  pIC50: 5.18
[13]
  Activity: 6.19 g/dL
[14]
  Activity: 28.62 U/L
[15]
  Activity: Non-toxic
[16]
  Activity: 106.86 U/L
[17]
  Activity: 0.56 mg/dL
[18]
  Activity: Active
[19]
  Activity: 12.11 mg/dL
[20]
  inhibition: Dose-dependent-effect
[21]
  Activity: Non-toxic
[22]
  Activity: 0.32 mg/dL
[23]
  Activity: 0.48%
[24]
  Activity: Non-toxic
[25]
  Activity: 34.74 g/dL
[26]
  Activity: Active
[27]
  Activity: 68%
[28]
  Activity: 29.7 pg
[29]
  Activity: 78.45 U/L
[30]
  Activity: Active
[31]
  Activity: 98.37 mg/dL
[32]
  Activity: Active
[33]
  Activity: 0.34 cm3
[34]
  Activity: Non-toxic
[35]
  Activity: 39.29%
[36]
  Activity: Active
[37]
  Activity: Non-toxic
[38]
  Activity: 6.29 10^6 /uL
[39]
  pKd: 4.38
[40]
  Activity: 0.702 mg/dL
[41]
  Activity: 7.9 mg/dL
[42]
  Activity: Active
[43]
  Activity: Non-toxic
[44]
  Activity: Active
[45]
  Activity: 22%
[46]
  Activity: 144.4 mEq/L
[47]
  Activity: 0.9%
[48]
  Activity: 3.3 mEq/L
[49]
  Activity: Non-toxic
[50]
  Activity: Non-toxic
[51]
  Activity: 6.56 g/dL
[3]
  pIC50: 5.32
[52]
  Activity: Active
[53]
  Activity: Dose-dependent-effect
[54]
  Activity: Non-toxic
